Data published in PubChem BioAssay AID330 (DTP/NCI, 2004).
Several values for one entry are separate records, joined by “and”; a condition that tells them apart may be missing. Equal entries are not always repeated. Inconclusive results and toxic doses are left out. How the source made its calls: active means survival T/C of 150% or more; inactive means T/C below 125% in these data.

Tested on: P388 leukemia ip, CD2F1 mice, survival T/C
Experiment: NCI In Vivo Anticancer Drug Screen. Data for tumor model P388 Leukemia (intraperitoneal) in CD2F1 (CDF1) mice
Conditions: endpoint: median survival time, higher = longer survival
Procedure: The antitumor activity of compounds was measured in mice bearing transplantable tumors. Survival or tumor size were measured and the results are expressed as the measurement made in the treated group (T) divided by the measurement made in the vehicle treated control group (C). The tumor model used in this assay is P388 Leukemia (intraperitoneal) in CD2F1 (CDF1) mice

[1] = dose: 50.0 mg/kg/injection, schedule: Q01DX009 (ip), vehicle: Klucel (hydroxypropylcellulose) (HPC)
[2] = dose: 50.0 mg/kg/injection, schedule: Q01DX009 (ip), vehicle: saline
[3] = dose: 100.0 mg/kg/injection, schedule: Q01DX009 (ip), vehicle: saline
[4] = dose: 200.0 mg/kg/injection, schedule: Q01DX009 (ip), vehicle: saline
[5] = dose: 50.0 mg/kg/injection, schedule: Q01DX005 (ip), vehicle: saline with Tween-80
[6] = dose: 100.0 mg/kg/injection, schedule: Q01DX005 (ip), vehicle: saline with Tween-80
[7] = dose: 200.0 mg/kg/injection, schedule: Q01DX005 (ip), vehicle: saline with Tween-80
[8] = dose: 50.0 mg/kg/injection, schedule: Q01DX005 (ip), vehicle: saline
[9] = dose: 100.0 mg/kg/injection, schedule: Q01DX005 (ip), vehicle: saline
[10] = dose: 200.0 mg/kg/injection, schedule: Q01DX005 (ip), vehicle: saline
[11] = dose: 60.0 mg/kg/injection, schedule: Q01DX005 (ip), vehicle: saline with Tween-80
[12] = dose: 120.0 mg/kg/injection, schedule: Q01DX005 (ip), vehicle: saline with Tween-80
[13] = dose: 240.0 mg/kg/injection, schedule: Q01DX005 (ip), vehicle: saline with Tween-80
[14] = dose: 12.5 mg/kg/injection, schedule: Q01DX005 (ip), vehicle: saline with Tween-80
[15] = dose: 25.0 mg/kg/injection, schedule: Q01DX005 (ip), vehicle: saline with Tween-80
[16] = dose: 100.0 mg/kg/injection, schedule: Q01DX001 (ip), vehicle: Klucel (hydroxypropylcellulose) (HPC)
[17] = dose: 200.0 mg/kg/injection, schedule: Q01DX001 (ip), vehicle: Klucel (hydroxypropylcellulose) (HPC)
[18] = dose: 400.0 mg/kg/injection, schedule: Q01DX001 (ip), vehicle: Klucel (hydroxypropylcellulose) (HPC)

Measured: T/C

COC(=O)CCCCCCCCCCCCCCCCC(=O)O
inactive: [1] 99 % of control | dose: 100.0 mg/kg/injection, schedule: Q01DX009 (ip), vehicle: Klucel (hydroxypropylcellulose) (HPC) 94 % of control | dose: 200.0 mg/kg/injection, schedule: Q01DX009 (ip), vehicle: Klucel (hydroxypropylcellulose) (HPC) 93 % of control

O=C1OC2CSCC2O1 (configuration not stated)
inactive: [2] 96 % of control | [3] 104 % of control | [4] 101 % of control

COC1OC2COC(c3ccccc3)OC2C(O)[CH]1[Hg][O]C(C)=O (configuration not stated)
inactive: dose: 0.1 mg/kg/injection, schedule: Q01DX009 (ip), vehicle: distilled water + Tween-80 100 % of control | dose: 0.19 mg/kg/injection, schedule: Q01DX009 (ip), vehicle: distilled water + Tween-80 96 % of control | dose: 0.38 mg/kg/injection, schedule: Q01DX009 (ip), vehicle: distilled water + Tween-80 107 % of control | dose: 0.78 mg/kg/injection, schedule: Q01DX009 (ip), vehicle: distilled water + Tween-80 99 % of control | dose: 1.56 mg/kg/injection, schedule: Q01DX009 (ip), vehicle: distilled water + Tween-80 91 % of control | dose: 3.13 mg/kg/injection, schedule: Q01DX009 (ip), vehicle: distilled water + Tween-80 104 % of control | dose: 6.25 mg/kg/injection, schedule: Q01DX009 (ip), vehicle: distilled water + Tween-80 96 % of control | dose: 12.5 mg/kg/injection, schedule: Q01DX009 (ip), vehicle: distilled water + Tween-80 110 % of control

CC1OC(C)(C)OC1C(=O)OCc1ccccc1 (configuration not stated)
inactive: dose: 25.0 mg/kg/injection, schedule: Q01DX005 (ip), vehicle: water 96 % of control | dose: 50.0 mg/kg/injection, schedule: Q01DX005 (ip), vehicle: water 105 % of control | dose: 100.0 mg/kg/injection, schedule: Q01DX005 (ip), vehicle: water 100 % of control | dose: 200.0 mg/kg/injection, schedule: Q01DX005 (ip), vehicle: water 100 % of control | dose: 400.0 mg/kg/injection, schedule: Q01DX005 (ip), vehicle: water 100 % of control

O=S1(=O)N=C(Sc2nc3ccccc3s2)c2ccccc21
inactive: [5] 102 % of control | [6] 107 % of control | [7] 117 % of control

C=CCC(C(C)=O)C(=O)OC(C)(C)C (configuration not stated)
inactive: [8] 101 % of control | [9] 104 % of control | [10] 111 % of control

O=C1C(O)=C(O)C(=O)c2ccccc21
inactive: [1] 90 % of control

O=C1c2ccccc2C(=O)c2c3c(cc([N+](=O)[O-])c21)OCO3
inactive: [11] 100 % of control | [12] 89 % of control | [13] 87 % of control

CC(=O)Nc1ccc(C(=O)CCl)c(Cl)c1
inactive: dose: 12.5 mg/kg/injection, schedule: Q01DX009 (ip), vehicle: Klucel (hydroxypropylcellulose) (HPC) 104 % of control | dose: 25.0 mg/kg/injection, schedule: Q01DX009 (ip), vehicle: Klucel (hydroxypropylcellulose) (HPC) 107 % of control

CCn1c2ccccc2c2cc(N=Nc3cc(CN(C)C)c(O)c4ncccc34)ccc21
inactive: [5] 100 % of control | [6] 100 % of control | [7] 100 % of control

CC(C)CCc1c(N)nc(N)[nH]c1=O
inactive: [14] 101 % of control | [15] 97 % of control | [5] 97 % of control

COc1cc(C2N3Cc4ccccc4CN2c2ccccc23)cc(OC)c1OC
inactive: [16] 101 % of control | [17] 99 % of control | [18] 102 % of control

Cc1cc(C)n(-c2ccc(Cl)nn2)n1
inactive: [2] 99 % of control | [3] 95 % of control | [4] 100 % of control

CP1(=O)CCc2c1ccc1ccccc21 (configuration not stated)
inactive: dose: 100.0 mg/kg/injection, schedule: Q04DX002 (ip), vehicle: saline 107 % of control | dose: 200.0 mg/kg/injection, schedule: Q04DX002 (ip), vehicle: saline 101 % of control

COc1ccc(CCNc2ccc(NCCc3ccc(OC)c(OC)c3)c3c2C(=O)c2ccccc2C3=O)cc1OC
inactive: dose: 25.0 mg/kg/injection, schedule: Q01DX009 (ip), vehicle: other 88 % of control | dose: 50.0 mg/kg/injection, schedule: Q01DX009 (ip), vehicle: other 88 % of control | dose: 200.0 mg/kg/injection, schedule: Q01DX009 (ip), vehicle: other 101 % of control | dose: 400.0 mg/kg/injection, schedule: Q01DX009 (ip), vehicle: other 91 % of control

Cc1[nH]c2ccc(Br)cc2c1/C=N/NC(N)=S
inactive: [16] 101 % of control | [17] 97 % of control | [18] 90 % of control

OCC(O)C(O)C(O)C(O)c1nnc2n[nH]c(=S)n2n1 (configuration not stated)
inactive: dose: 25.0 mg/kg/injection, schedule: Q01DX001 (ip), vehicle: Klucel (hydroxypropylcellulose) (HPC) 100 % of control | dose: 50.0 mg/kg/injection, schedule: Q01DX001 (ip), vehicle: Klucel (hydroxypropylcellulose) (HPC) 98 % of control | [16] 100 % of control

O=CN(CCC(=O)O)c1ccccc1
inactive: [8] 106 % of control | [9] 113 % of control | [10] 107 % of control

O=C1C=CC(Cc2ccccc2)N1C(=O)c1ccccc1 (configuration not stated)
inactive: [5] 99 % of control | [6] 100 % of control | [7] 97 % of control

COc1ccc2cc(C(=O)c3ccccc3)c(=O)oc2c1
inactive: [11] 93 % of control | [12] 96 % of control | [13] 96 % of control

CC(C)(CO)C(O)C(=O)NCCCO (configuration not stated)
inactive: [2] 103 % of control | [3] 98 % of control | [4] 100 % of control

CCP(CC)(c1ccccc1)=c1c(=O)c(Cl)c(Cl)c(=O)c1=O
inactive: dose: 6.25 mg/kg/injection, schedule: Q01DX005 (ip), vehicle: Klucel (hydroxypropylcellulose) (HPC) 100 % of control | dose: 12.5 mg/kg/injection, schedule: Q01DX005 (ip), vehicle: Klucel (hydroxypropylcellulose) (HPC) 102 % of control | dose: 25.0 mg/kg/injection, schedule: Q01DX005 (ip), vehicle: Klucel (hydroxypropylcellulose) (HPC) 100 % of control

O=C(O)C1CCCN1C(=O)c1cccc(Cl)c1 (configuration not stated)
inactive: [5] 94 % of control | [6] 96 % of control | [7] 87 % of control

O=C1NC(CN2CCCC(O)C2)C(=O)NC1CN1CCCC(O)C1 (configuration not stated)
inactive: dose: 12.5 mg/kg/injection, schedule: Q01DX009 (ip), vehicle: water 110 % of control and 95 % of control | dose: 25.0 mg/kg/injection, schedule: Q01DX009 (ip), vehicle: water 96 % of control and 90 % of control | dose: 50.0 mg/kg/injection, schedule: Q01DX009 (ip), vehicle: water 96 % of control and 110 % of control | dose: 100.0 mg/kg/injection, schedule: Q01DX009 (ip), vehicle: water 122 % of control and 114 % of control | dose: 200.0 mg/kg/injection, schedule: Q01DX009 (ip), vehicle: water 116 % of control

CNCCNc1ncc([N+](=O)[O-])s1
inactive: dose: 25.0 mg/kg/injection, schedule: Q01DX001 (ip), vehicle: saline 115 % of control and 118 % of control | dose: 50.0 mg/kg/injection, schedule: Q01DX001 (ip), vehicle: saline 122 % of control and 124 % of control

O=S(=O)(Nc1nccs1)c1ccc(Nc2c3ccc(Cl)cc3nc3ncccc23)cc1
inactive: [5] 105 % of control | [6] 102 % of control | [7] 98 % of control

CN(C)c1nc2c(N)ncnc2n1C1OC(CO)C(O)C1O (configuration not stated)
inactive: [14] 100 % of control and 106 % of control | [15] 103 % of control and 106 % of control | [5] 112 % of control and 113 % of control | [6] 123 % of control

N#CCc1csc2ccccc12
inactive: dose: 50.0 mg/kg/injection, schedule: Q01DX005 (ip), vehicle: Klucel (hydroxypropylcellulose) (HPC) 117 % of control | dose: 100.0 mg/kg/injection, schedule: Q01DX005 (ip), vehicle: Klucel (hydroxypropylcellulose) (HPC) 115 % of control | dose: 200.0 mg/kg/injection, schedule: Q01DX005 (ip), vehicle: Klucel (hydroxypropylcellulose) (HPC) 112 % of control

Cc1ccccc1NC(=O)Oc1ccc(Cl)cc1C(=O)c1ccccc1
inactive: [11] 100 % of control | [12] 109 % of control | [13] 103 % of control

CC(=O)c1c(O)cc(-c2ccccc2)oc1=O
inactive: dose: 9.5 mg/kg/injection, schedule: Q01DX005 (ip), vehicle: Klucel (hydroxypropylcellulose) (HPC) 91 % of control | dose: 19.0 mg/kg/injection, schedule: Q01DX005 (ip), vehicle: Klucel (hydroxypropylcellulose) (HPC) 96 % of control | dose: 38.0 mg/kg/injection, schedule: Q01DX005 (ip), vehicle: Klucel (hydroxypropylcellulose) (HPC) 93 % of control | dose: 76.0 mg/kg/injection, schedule: Q01DX005 (ip), vehicle: Klucel (hydroxypropylcellulose) (HPC) 106 % of control
